Results reported in patent US12268727B2, “Bioactive polypeptides for improvements in plant protection, growth and productivity” (priority 2017, dated 2025).

What was measured:
soybean = experiment: Foliar application to soybean in growth room, plant height (non-stress, heat and water deficit stress); type: in vivo; details: 300 nM + 0.1% ALLIGARE SURFACE
Protocol: Ec.Flg22 (SEQ ID NO: 527) was applied to soybean (Beck's 297NR).
Plant height (cm) was measured just prior to the foliar application delivered at 3 weeks and then again 2 weeks later when the plants were 5-weeks-old. Two replicate trials were conducted using 18 plants per trial.
Soybean plants were grown as described in Example 6. The At.PSKα polypeptide (SEQ ID NO: 598) was applied as a foliar spray to the plants at the V1-V4 stage. Soybean plants treated with foliar applications of At.PSKα and control plants treated with water and surfactant alone were then grown in conditions described in Examples 7-9 that produced a non-stress and stress (heat and water deficit) environments. Table 37 describes the percentage change or increase in height reported for soybean plants treated with At.PSKα as a foliar spray at the V1-V4 growth stage.
RHPP bioactive priming polypeptide (SEQ ID NO: 600) was also applied as foliar treatment to R1 stage hybrid soybean (Beck's 297R4) with 0.1% (v/v) non-ionic surfactant ([…] SURFACE) using a spray bottle delivering approximately 1.2 ml/plant. This experiment was performed to look at the effects of RHPP on plant growth and was conducted using a total of 18 plants per treatment group. […] R1 stage soybean plants were treated with nothing (non-treated control), […] SURFACE surfactant applied at a concentration of 0.1% (v/v) or the RHPP polypeptide (300 nM) applied in combination with […] SURFACE surfactant (0.1% v/v). Height for each plant was recorded at the time of spray and again at 16 days post foliar application and average growth parameters were compared between foliar treatments (Table 39).

[1] = system: reactive oxygen species (ROS) production in soybean leaf tissue; experiment: ROS activity assay in soybean leaf tissue (luminol/horseradish peroxidase, RLU); type: cell-based; details: for Fold increase over negative control: vs mock (water)
[2] = system: reactive oxygen species (ROS) production in Kiwi 'Hayward' leaf petioles; experiment: ROS activity assay in kiwi leaf petioles; type: cell-based, Actinidiae deliciosa; details: 100 nM peptide; Kiwi 'Hayward' leaf petiole slices; 40 minutes time course
Protocol: To test the sensitivity of kiwi leaves to 22-amino acid fragments of flagellin, 1 mm slices were cut through Actinidiae deliciosa Kiwi ‘Hayward’ leaf petioles and floated in 150 μL of water in a 96-well plate, with one slice per well. […] In two independent experiments, a total of 6 kiwi leaf petiole samples were treated with each Flg22 polypeptide in Table 94. The average total RLU and standard error of the means (SEM) was calculated for each treatment. A two-tailed T-test was used to determine significance at the 90% confidence level (P<0.1) between treatments. Relative ROS production was determined for each polypeptide in comparison to total RLUs for the 100 nM Bt.4Q7Flg22 control.

[3] = system: reactive oxygen species (ROS) production in Arabidopsis leaf tissue; experiment: ROS activity assay in Arabidopsis leaf tissue; type: cell-based, Arabidopsis thaliana; details: 100 nM each polypeptide, negative control (water) 82896
Protocol: Elf18 and Elf26 polypeptides derived from the consensus Bacillus cereus Elongation Factor-TU (EF-Tu) protein were tested for ability to produce a ROS response in corn (hybrid 5828 YX), soy (variety Morsoy), and Arabidopsis thaliana. Polypeptides were synthesized by Genscript USA (Piscataway, N.J.) using standard solid-phase synthesis methods and provided as a lyophilized powder with greater than or equal to 70% purity. Dry powder was re-suspended to a concentration of 10 mM in ultrapure water, and then serially diluted in ultrapure water to the concentrations tested in the ROS assay in Table 98.
For the ROS assay, Arabidopsis leaves were excised from 4-week-old plants, and using a cork borer 4 mm disks were removed from the leaves. Each disc was cut in half using the edge of a razor blade, and then each disc half was floated on 150 μL of water abaxial side touching the water in a 96-well plate to rest overnight. The next day, the water was removed from each well just prior to polypeptide treatment. RLU values and relative ROS activity was reported as the average of 4 measurements.

Cercospora brassicicola = experiment: White leaf spot on kale, disease score and plant weight; type: in vivo
Protocol: The infected kale plants had received no previous foliar treatments for fungal disease prevention. […] A single person scored all the plants within the trial area, and then evenly distributed the plants by disease score between the treatments in Table 64, with 6 replicated blocks of 6 plants per treatment (total=36 plants per treatment). […] Three weeks after foliar treatments, the plants were scored used the same disease severity rubric. The change in disease score was calculated for each plant, and the average change in disease score was determined per treatment. Plants were harvested four days after assessing disease severity, and yield was measured as plant weight (grams). Outlying values with weights that were either 50% below or 50% above the median weight for the trial were excluded from the dataset.

[4] = system: reactive oxygen species (ROS) production in corn tissue; experiment: ROS activity assay in corn tissue (luminol/horseradish peroxidase, RLU); details: for Change (X) in RLU of Flg22 Polypeptide Compared to Negative Control / Average RLU of Flg22 Polypeptide Treatment: corn petiole; for Average RLU of Flg22 Polypeptide Treatment: background subtracted; for Relative ROS activity normalized to Bt.4Q7Flg22: normalized to Bt.4Q7Flg22 at 100 nM
[5] = Table 33, RLU relative to native Bt.4Q7Flg22 = 100
[6] = Table 35, single polypeptides and combinations, Bt.4Q7Flg22 = 100
[7] = soybean leaf tissue, Bt.4Q7Flg22 52.2 nM without surfactant
[8] = soybean leaves, Bt.4Q7Flg22 100 nM, No PROXEL Preservative Added

GGIRAAPTGNER (Glycine max) [RHPP, Root Hair Promoting Peptide from Glycine max]
plant height and change in plant height vs surfactant alone and non-treated (soybean; R1, 16 days post application): increased plant growth (plant height)
Height (cm) (soybean; soybean Beck's 297R4, R1 stage, 16 days post foliar application, n = 18): 19.9 cm
Change in height (cm) (soybean; soybean Beck's 297R4, R1 stage, spray to 16 days post application, n = 18): 4.6 cm

Bt.4Q7Flg22: Flg22 polypeptide (22 amino acids) from flagellin of Bacillus thuringiensis strain 4Q7 (DRLSSGKRINSASDDAAGLAIA; listed as Bacillus thuringiensis)
fold-increase in ROS production over mock-treated control ([1]; 52.2 nM Bt.4Q7Flg22, NIS90:10 0.25% or 0.5% v/v, Silwet-L77 0.025% or 0.1% v/v): 6.8 ×
fold increase in RLU over mock treatment ([1]; 100 nM Bt.4Q7Flg22, Proxel compatibility test): 17.0 ×
Avg. Activity (%) Soybean (297 R4) 100 nM polypeptide [1, 5]: 100%
Avg. Activity (%) Soybean (297 R4) 100 nM polypeptide [1, 6]: 100%
relative ROS activity ([1]; soy leaf tissue, 10 nM): 0.04 ×
Polypeptide Concentration (nM) for 5 × 10^4 total RLU production ([1]; soybean leaf discs, from best-fit regression, Table 72 data set): 31.4 nM
Average RLU values [1, 7]: 350503 RLU
Fold increase over negative control [1, 7]: (6.8X)
Average RLU values [1, 8]: 81887 RLU
Fold increase over negative control [1, 8]: (17.0X)
Average Total Relative Light Units (RLUs); SEM in parentheses [2]: 47,457 RLU
Average RLU value [3]: 258073 RLU
Average Change in Disease Score (Cercospora brassicicola; improvement on the 1-5 scale, surfactant only control 0.6 point improvement): 1.1 point
average plant weight (Cercospora brassicicola; infected kale, harvested about 3.5 weeks after foliar treatment): 15.1 g
Yield (Average plant weight in grams) (Cercospora brassicicola; infected kale, Bt.4Q7Flg22 100 μM 12.0 Fl. oz/Ac, Liquid Copper Fungicide label rate 54.45 Fl oz/Ac): 15.1 grams
Yield Relative to control (%) (Cercospora brassicicola; infected kale, surfactant only control 100%, Bt.4Q7Flg22 12.0 Fl. oz/Ac, copper fungicide 54.45 Fl oz/Ac): (103%)
average improvement in disease scoring over control (1-5 rubric) (Cercospora brassicicola; three weeks after foliar treatment): 0.5 points
Avg. Activity (%) Corn (5828 YX) 5 nM polypeptide [4, 5]: 100%
Avg. Activity (%) Corn (5828 YX) 5 nM polypeptide [4, 6]: 100%
Change (X) in RLU of Flg22 Polypeptide Compared to Negative Control ([4]; 1.0 nM): 0.8X
Average RLU of Flg22 Polypeptide Treatment ([4]; 1.0 nM): 6851 RLU
Change (X) in RLU of Flg22 Polypeptide Compared to Negative Control ([4]; 5 nM): 1.1X
Average RLU of Flg22 Polypeptide Treatment ([4]; 5 nM): 9389 RLU
Change (X) in RLU of Flg22 Polypeptide Compared to Negative Control ([4]; 25 nM): 1.4X
Average RLU of Flg22 Polypeptide Treatment ([4]; 25 nM): 12157 RLU
Average RLU ([4]; corn stalk tissue, 10 nM): 6032 RLU
relative ROS activity ([4]; corn stalk tissue, 10 nM): 0.2 ×
Relative ROS activity normalized to Bt.4Q7Flg22 ([4]; corn stalk tissue, 10 nM): (0.2X)
Average RLU ([4]; corn stalk tissue, 100 nM): 33037 RLU
Relative ROS activity normalized to Bt.4Q7Flg22 ([4]; corn stalk tissue, 100 nM): (1X*)
